Results on nine molecules are retold here after ChEMBL document CHEMBL5465560, “Selectivity Literature for EUbOPEN Chemogenomic Library” (2024).

Assay [1] addresses Casein kinase I isoform delta (Homo sapiens, UniProt P48730). Description: Selectivity interaction (KinomeScan (DiscoverX)) EUB0001619a CSNK1D. Particulars: at 1 µM.
For assay [2], the target named is Interleukin-1 receptor-associated kinase 1 (Homo sapiens) (UniProt P51617). Description: Selectivity interaction (KinomeScan (DiscoverX)) EUB0001619a IRAK1. The settings on record: at 1 µM.
Chain of Interleukin-1 receptor-associated kinase 1 (Homo sapiens) (P51617 whole entry, looked up): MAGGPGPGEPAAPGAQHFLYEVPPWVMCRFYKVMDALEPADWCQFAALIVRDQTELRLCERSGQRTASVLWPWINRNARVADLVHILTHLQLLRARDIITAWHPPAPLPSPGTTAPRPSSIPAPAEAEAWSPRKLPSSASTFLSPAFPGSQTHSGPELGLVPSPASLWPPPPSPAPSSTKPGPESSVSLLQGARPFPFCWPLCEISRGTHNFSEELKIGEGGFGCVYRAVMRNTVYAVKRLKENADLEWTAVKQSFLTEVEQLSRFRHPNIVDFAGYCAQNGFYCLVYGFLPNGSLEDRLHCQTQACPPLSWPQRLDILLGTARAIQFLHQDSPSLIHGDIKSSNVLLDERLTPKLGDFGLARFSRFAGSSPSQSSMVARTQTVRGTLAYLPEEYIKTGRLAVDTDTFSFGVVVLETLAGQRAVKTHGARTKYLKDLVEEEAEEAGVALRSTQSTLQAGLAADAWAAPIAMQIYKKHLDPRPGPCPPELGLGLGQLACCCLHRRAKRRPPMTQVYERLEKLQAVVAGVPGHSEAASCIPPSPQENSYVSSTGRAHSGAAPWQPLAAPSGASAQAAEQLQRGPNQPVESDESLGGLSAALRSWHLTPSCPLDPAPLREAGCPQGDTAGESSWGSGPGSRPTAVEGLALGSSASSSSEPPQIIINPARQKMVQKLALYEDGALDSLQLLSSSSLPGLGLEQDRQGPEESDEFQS
Assay [3] concerns the target Serine/threonine-protein kinase N1 (Homo sapiens, UniProt Q16512). Description: Selectivity interaction (KinomeScan (DiscoverX)) EUB0001619a PKN1. Particulars: at 1 µM.
In assay [4] the target is Tyrosine-protein kinase Fes/Fps (Homo sapiens) (UniProt P07332). Particulars: at 10 µM.
Chain of Tyrosine-protein kinase Fes/Fps (Homo sapiens) (P07332 whole entry): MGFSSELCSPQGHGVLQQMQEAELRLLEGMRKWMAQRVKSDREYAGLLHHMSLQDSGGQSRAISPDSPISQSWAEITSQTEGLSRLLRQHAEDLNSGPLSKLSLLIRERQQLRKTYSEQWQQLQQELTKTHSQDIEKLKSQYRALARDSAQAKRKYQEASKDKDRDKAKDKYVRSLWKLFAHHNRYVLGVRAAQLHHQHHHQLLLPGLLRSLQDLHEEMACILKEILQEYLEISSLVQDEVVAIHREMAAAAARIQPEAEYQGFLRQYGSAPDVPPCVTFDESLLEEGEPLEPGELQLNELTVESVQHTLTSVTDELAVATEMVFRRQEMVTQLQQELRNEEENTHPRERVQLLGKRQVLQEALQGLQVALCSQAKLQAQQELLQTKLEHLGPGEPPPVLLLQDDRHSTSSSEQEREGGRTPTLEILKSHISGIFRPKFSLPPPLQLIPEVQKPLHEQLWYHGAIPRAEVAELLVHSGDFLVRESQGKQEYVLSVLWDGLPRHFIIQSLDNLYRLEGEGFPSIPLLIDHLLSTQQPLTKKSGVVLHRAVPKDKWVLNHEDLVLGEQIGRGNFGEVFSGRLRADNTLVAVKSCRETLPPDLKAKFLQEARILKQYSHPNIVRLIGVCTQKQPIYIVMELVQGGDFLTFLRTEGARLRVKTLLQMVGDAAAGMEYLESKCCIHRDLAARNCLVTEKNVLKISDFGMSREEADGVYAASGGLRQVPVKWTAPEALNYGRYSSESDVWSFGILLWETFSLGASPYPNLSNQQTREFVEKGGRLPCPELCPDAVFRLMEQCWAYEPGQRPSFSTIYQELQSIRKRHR
Assay [5] addresses T1, Mitogen-activated protein kinase kinase kinase 2 (Homo sapiens) (UniProt Q9Y2U5).
T1 sequence (whole entry): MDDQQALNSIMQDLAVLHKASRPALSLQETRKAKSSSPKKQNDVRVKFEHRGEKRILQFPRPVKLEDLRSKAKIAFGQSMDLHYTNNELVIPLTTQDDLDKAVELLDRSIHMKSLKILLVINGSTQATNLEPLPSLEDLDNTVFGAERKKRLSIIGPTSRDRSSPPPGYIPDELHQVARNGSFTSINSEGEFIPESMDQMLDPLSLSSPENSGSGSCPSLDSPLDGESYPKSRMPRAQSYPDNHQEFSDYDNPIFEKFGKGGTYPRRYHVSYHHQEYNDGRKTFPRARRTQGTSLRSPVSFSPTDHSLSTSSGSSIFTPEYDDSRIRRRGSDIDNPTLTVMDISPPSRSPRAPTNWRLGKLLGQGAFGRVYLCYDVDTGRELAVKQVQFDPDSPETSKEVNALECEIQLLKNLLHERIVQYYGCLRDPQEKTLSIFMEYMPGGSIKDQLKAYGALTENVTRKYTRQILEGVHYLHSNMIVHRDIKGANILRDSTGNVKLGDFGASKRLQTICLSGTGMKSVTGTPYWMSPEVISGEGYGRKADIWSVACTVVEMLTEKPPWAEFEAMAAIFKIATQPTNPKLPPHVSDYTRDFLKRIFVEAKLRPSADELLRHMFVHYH
Nature of the assay: Selectivity interaction (KinomeScan (DiscoverX)) EUB0000666a MAP3K2. Particulars: at 10 µM.

Assay [6] addresses G protein-coupled receptor kinase 6 (Homo sapiens) (UniProt P43250). Description: Selectivity interaction (SelectScreen profiling (Invitrogen)) EUB0000607a GRK6. Particulars: at 2 µM.
Assay [7] concerns Phosphatidylinositol 4,5-bisphosphate 3-kinase catalytic subunit alpha isoform (Homo sapiens), P42336 [C420R]. The settings on record: at 10 µM.
Assay [8] addresses 5'-AMP-activated protein kinase catalytic subunit alpha-2 (Homo sapiens) (UniProt P54646). The settings on record: at 10 µM.
The target is the same in assay [9]. Nature of the assay: Selectivity interaction (KinomeScan (DiscoverX)) EUB0000311b PRKAA2. The settings on record: at 1 µM.
Assay [10] has as its target T2, Cyclin-dependent kinase 11A (Homo sapiens) (UniProt Q9UQ88).
T2 sequence (whole entry): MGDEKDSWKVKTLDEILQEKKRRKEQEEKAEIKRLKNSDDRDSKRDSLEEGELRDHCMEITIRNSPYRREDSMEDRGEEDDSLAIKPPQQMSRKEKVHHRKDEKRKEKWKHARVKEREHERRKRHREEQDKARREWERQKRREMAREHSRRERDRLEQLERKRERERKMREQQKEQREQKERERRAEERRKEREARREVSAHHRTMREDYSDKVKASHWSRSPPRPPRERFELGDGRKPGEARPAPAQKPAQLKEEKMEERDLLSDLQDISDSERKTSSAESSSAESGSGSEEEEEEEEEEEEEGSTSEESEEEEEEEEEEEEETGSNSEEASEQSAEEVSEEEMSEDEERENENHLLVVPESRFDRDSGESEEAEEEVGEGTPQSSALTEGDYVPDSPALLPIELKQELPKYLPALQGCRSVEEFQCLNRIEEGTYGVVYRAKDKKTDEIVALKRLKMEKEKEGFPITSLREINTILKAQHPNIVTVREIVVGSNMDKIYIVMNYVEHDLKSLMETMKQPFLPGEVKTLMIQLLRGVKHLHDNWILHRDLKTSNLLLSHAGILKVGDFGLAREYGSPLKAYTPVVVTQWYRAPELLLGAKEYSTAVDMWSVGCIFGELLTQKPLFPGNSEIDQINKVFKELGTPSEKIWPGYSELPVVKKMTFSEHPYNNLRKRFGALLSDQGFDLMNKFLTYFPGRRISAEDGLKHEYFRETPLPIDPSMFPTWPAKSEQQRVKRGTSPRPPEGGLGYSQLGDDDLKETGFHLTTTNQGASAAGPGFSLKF
Nature of the assay: Selectivity interaction (Ambit KINOMEscan and KiNATiv profiling in Jurkat cells) EUB0000090b CDK11A. The class given is cell-based. Particulars: at 1 µM.

Assay [11] has as its target T3, Inhibitor of nuclear factor kappa-B kinase subunit beta (Homo sapiens) (UniProt O14920).
T3 sequence (whole entry): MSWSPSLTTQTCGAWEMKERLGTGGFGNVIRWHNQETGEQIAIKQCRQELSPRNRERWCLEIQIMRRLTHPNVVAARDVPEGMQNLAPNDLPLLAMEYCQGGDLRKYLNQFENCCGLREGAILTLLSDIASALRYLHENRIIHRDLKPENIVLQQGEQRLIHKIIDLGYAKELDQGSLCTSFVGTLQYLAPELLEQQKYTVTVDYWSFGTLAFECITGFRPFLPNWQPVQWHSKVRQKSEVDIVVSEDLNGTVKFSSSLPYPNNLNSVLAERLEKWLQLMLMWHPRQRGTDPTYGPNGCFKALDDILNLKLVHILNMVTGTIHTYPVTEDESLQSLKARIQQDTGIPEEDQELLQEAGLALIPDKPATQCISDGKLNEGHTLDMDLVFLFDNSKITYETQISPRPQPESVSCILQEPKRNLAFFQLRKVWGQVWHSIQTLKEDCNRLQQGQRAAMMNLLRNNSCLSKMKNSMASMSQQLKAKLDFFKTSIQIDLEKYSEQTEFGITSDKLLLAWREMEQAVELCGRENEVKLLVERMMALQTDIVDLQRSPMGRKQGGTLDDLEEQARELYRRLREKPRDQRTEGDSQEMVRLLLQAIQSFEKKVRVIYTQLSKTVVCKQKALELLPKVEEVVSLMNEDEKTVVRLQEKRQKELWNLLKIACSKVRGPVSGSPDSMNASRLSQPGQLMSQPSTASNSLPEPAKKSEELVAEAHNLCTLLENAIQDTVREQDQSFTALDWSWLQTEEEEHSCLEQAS
Nature of the assay: Selectivity interaction (Millipore kinase profiler) EUB0000124b IKBKB. The settings on record: at 10 µM.

Assay [12] addresses Mitogen-activated protein kinase 11 (Homo sapiens) (UniProt Q15759). Description: Selectivity interaction (Kinase panel (KiNativ target engagement assay in Jurkat cells)) EUB0001635a MAPK11. The class given is cell-based. The settings on record: Selectivity number of off-targets 0.0, Selectivity number of targets 233.0, Source Knowledge https://www.sciencedirect.com/science/article/pii/S2451945619300674?via%3Dihub, at 1 µM.

Chain of 5'-AMP-activated protein kinase catalytic subunit alpha-2 (Homo sapiens) (P54646 whole entry, looked up): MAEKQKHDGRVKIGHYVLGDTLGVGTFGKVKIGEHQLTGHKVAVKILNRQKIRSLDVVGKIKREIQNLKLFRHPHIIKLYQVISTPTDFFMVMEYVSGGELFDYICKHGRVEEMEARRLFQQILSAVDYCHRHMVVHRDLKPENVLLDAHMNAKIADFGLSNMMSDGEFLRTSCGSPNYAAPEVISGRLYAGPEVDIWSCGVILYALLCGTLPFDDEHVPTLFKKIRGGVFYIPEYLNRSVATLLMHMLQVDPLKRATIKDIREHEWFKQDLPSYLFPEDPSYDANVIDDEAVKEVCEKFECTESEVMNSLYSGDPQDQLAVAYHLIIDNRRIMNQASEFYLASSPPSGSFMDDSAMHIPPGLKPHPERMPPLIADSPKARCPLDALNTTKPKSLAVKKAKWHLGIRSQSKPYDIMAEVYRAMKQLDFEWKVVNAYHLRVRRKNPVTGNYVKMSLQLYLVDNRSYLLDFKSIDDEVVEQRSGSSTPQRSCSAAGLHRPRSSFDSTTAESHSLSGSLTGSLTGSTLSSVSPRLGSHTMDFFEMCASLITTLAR
Chain of Serine/threonine-protein kinase N1 (Q16512 2-942 limits assumed): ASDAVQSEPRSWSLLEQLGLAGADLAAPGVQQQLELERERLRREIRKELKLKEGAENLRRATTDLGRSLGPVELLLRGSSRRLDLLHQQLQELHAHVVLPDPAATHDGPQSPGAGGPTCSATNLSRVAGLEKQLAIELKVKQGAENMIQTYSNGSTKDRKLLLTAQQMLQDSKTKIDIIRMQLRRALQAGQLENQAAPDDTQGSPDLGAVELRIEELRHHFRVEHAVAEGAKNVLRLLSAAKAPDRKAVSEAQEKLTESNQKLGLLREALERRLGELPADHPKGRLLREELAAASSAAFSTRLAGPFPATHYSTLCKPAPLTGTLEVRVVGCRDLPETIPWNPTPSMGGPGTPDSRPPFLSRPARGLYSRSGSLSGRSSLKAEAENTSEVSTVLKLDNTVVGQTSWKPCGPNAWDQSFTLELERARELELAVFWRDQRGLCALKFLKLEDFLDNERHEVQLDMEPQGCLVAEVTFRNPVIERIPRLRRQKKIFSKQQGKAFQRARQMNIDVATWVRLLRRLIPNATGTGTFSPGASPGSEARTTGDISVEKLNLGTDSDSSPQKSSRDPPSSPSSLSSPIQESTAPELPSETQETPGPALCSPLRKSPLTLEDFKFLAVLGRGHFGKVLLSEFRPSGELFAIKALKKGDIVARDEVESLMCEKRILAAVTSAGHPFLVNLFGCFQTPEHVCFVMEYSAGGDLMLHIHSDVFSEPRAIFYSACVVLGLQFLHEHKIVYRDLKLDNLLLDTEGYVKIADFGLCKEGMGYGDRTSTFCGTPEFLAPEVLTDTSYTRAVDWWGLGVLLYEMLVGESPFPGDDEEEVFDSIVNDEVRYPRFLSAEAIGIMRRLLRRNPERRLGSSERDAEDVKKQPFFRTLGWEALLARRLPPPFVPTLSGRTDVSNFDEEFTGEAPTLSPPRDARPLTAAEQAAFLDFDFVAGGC
Chain of Casein kinase I isoform delta (P48730 whole entry, looked up, canonical isoform): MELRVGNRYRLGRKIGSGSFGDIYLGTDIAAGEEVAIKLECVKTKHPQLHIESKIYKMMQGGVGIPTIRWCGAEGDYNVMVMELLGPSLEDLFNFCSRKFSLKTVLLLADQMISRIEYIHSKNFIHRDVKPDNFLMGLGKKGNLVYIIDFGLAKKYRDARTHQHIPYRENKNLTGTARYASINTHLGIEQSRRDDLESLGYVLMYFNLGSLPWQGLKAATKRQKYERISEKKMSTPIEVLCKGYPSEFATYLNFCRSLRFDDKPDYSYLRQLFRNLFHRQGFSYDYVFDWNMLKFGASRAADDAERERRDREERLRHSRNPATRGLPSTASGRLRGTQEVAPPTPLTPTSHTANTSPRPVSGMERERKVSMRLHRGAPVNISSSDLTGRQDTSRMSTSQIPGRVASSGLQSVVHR
Chain of G protein-coupled receptor kinase 6 (Homo sapiens) (P43250 whole entry, looked up, canonical isoform): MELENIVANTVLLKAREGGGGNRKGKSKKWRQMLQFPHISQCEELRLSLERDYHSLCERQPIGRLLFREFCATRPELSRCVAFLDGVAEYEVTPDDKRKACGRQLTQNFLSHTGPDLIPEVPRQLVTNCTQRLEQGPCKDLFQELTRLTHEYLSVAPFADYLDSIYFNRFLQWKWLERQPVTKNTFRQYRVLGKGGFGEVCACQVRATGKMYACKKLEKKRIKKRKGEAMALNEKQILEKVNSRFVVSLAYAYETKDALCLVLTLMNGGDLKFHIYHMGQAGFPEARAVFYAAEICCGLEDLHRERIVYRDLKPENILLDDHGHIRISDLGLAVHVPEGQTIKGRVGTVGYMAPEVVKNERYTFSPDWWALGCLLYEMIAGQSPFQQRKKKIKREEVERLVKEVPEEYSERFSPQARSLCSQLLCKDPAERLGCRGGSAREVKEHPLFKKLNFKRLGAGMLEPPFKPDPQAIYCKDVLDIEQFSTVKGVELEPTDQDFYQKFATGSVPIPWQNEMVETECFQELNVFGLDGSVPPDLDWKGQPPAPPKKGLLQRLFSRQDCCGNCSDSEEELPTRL
Chain of Mitogen-activated protein kinase 11 (Homo sapiens) (Q15759 whole entry): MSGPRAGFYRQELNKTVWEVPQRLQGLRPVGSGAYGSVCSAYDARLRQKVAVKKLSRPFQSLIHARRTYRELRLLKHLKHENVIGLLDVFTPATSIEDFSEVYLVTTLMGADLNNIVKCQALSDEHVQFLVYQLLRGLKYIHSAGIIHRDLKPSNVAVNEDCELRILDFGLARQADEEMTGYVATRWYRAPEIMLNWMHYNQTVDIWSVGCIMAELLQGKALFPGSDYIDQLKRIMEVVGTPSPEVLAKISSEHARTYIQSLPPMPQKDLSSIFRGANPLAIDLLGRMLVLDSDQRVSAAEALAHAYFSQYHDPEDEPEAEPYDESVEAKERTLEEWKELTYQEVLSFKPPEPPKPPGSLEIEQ

On to `N#Cc1cccc(-c2c[nH]c3ncnc(N4CCOCC4)c23)c1`, for which the % of control was determined as 100% in assay [1], 23% in assay [2] and 62% in assay [3].
Take `CCN(CC)CCCCNc1ncc2cc(-c3cc(OC)cc(OC)c3)c(NC(=O)NC(C)(C)C)nc2n1`: the % of control in [4] came out at 100%.
Turning to `O=C(NOC[C@H](O)CO)c1ccc(F)c(F)c1Nc1ccc(I)cc1F`, the % of control in assay [5] is 100%.
Turning to `CNC(=O)Nc1ccc(-c2nc(N3CC4CCC(C3)O4)c3cnn(C4CCC5(CC4)OCCO5)c3n2)cc1`, the % of inhibition in assay [6] was -1%. Moreover, the % of control in assay [7] came out at 11%.
In turn, `Cc1cc([C@@H](C)Nc2ccccc2C(=O)O)c2nc(N3CCOCC3)cc(=O)n2c1` [AZD-6482] returned a % of control in assay [8] of 88%.
`CCc1ccccc1C(=O)Nc1n[nH]c2c(C)c(F)c(C3C(C#N)=C(C)N(C)C(C)=C3C#N)cc12` [BAY-3827] registered a % of control in assay [9] of 0%.
In assay [10], `CN(C)C/C=C/C(=O)Nc1ccc(C(=O)N2CCCC(Nc3ncc(Cl)c(-c4c[nH]c5ccccc45)n3)C2)cc1` (configuration not stated) came in with a % of control of 95%.
On to `CC(=O)Nc1cccc(-n2c(=O)n(C3CC3)c(=O)c3c(Nc4ccc(I)cc4F)n(C)c(=O)c(C)c32)c1`, for which the % of control in [11] came out at 111%.
In the case of `C=CC(=O)Nc1ccc(C(=O)Nc2[nH]nc3c2CN(C(=O)N[C@H](CN(C)C)c2ccccc2)C3(C)C)cc1`, the % of engagement in assay [12] is -9.9%.
